Measured values from ChEMBL document CHEMBL2150906, “Synthesis of a new [6]-gingerol analogue and its protective effect with respect to the development of metabolic syndrome in mice fed a high-fat diet” (J Med Chem, 2011).
Active and inactive are the calls of the source. No cut-off for these calls is given here.

How the values were obtained:
Mus musculus [1] = assay: Antiobesity activity in regular chow-fed Jcl:MCH mouse assessed as decrease in body weight administered as supplement for 86 days (reference value: 45.0 +/- 0.8 g); type: functional
Mus musculus [2] = assay: Antiobesity activity in HFD-induced obese Jcl:MCH mouse model assessed as decrease in body weight administered as supplement for 86 days (reference value: 51.2 +/- 2.7 g); type: functional
Mus musculus [3] = assay: Antiobesity activity in regular chow-fed Jcl:MCH mouse assessed as decrease in subcutaneous fat administered as supplement for 86 days measured after 90 days by MRI (reference value: 5.4 +/- 1.7%); type: functional; set-up: scale not given: the % may be the effect or the level left
Mus musculus [4] = assay: Antiobesity activity in HFD-induced obese Jcl:MCH mouse model assessed as decrease in subcutaneous fat administered as supplement for 86 days measured after 90 days by MRI (reference value: 20.8 +/- 1.7 %); type: functional; set-up: scale not given: the % may be the effect or the level left
Mus musculus [5] = assay: Antiobesity activity in HFD-induced obese Jcl:MCH mouse model assessed as decrease in visceral fat administered as supplement for 86 days measured after 90 days by MRI relative to control; type: functional
Mus musculus [6] = assay: Hypoglycemic activity in HFD-induced obese Jcl:MCH mouse model assessed as decrease in post prandial blood glucose levels administered as supplement for 86 days measured after 92 to 94 days by OGTT relative to HFD-fed control; type: functional, organism-based
Mus musculus [7] = assay: Reduction in serum insulin levels in HFD-induced obese Jcl:MCH mouse model administered as supplement for 86 days measured after 100 days by ELISA relative to HFD-fed control; type: functional, organism-based
Mus musculus [8] = assay: Reduction in serum leptin levels in HFD-induced obese Jcl:MCH mouse model administered as supplement for 86 days measured after 100 days by ELISA relative to HFD-fed control; type: functional, organism-based
Mus musculus [9] = assay: Reduction in leptin mRNA levels in HFD-induced obese Jcl:MCH mouse model adipose tissue administered as supplement for 86 days measured after 100 days by RT-PCR relative to HFD-fed control; type: functional, organism-based
Mus musculus [10] = assay: Reduction in TNFalpha mRNA levels in HFD-induced obese Jcl:MCH mouse model adipose tissue administered as supplement for 86 days measured after 100 days by RT-PCR relative to HFD-fed control; type: functional, organism-based
Mus musculus [11] = assay: Reduction in SREBP1c mRNA levels in HFD-induced obese Jcl:MCH mouse model administered as supplement for 86 days measured after 100 days by RT-PCR relative to HFD-fed control; type: functional, organism-based
Mus musculus [12] = assay: Reduction in ACC mRNA levels in HFD-induced obese Jcl:MCH mouse model liver administered as supplement for 86 days measured after 100 days by RT-PCR relative to HFD-fed control; type: functional, organism-based
Mus musculus [13] = assay: Reduction in FAS mRNA levels in HFD-induced obese Jcl:MCH mouse model liver administered as supplement for 86 days measured after 100 days by RT-PCR relative to HFD-fed control; type: functional, organism-based
3T3-L1 [14] = assay: Increase in adiponectin mRNA levels in TNFalpha-induced mouse 3T3L1 cells pretreated at 50 uM before TNF-alpha challenge relative to control; type: functional, cell-based
3T3-L1 [15] = assay: Increase in adiponectin mRNA levels in TNFalpha-induced mouse 3T3L1 cells pretreated at 25 to 50 uM before TNF-alpha challenge relative to control; type: functional, cell-based
[16] = Stability of the compound in simulated gastric fluid at pH 1.0 assessed as formation of shogaols; type: physicochemical; conditions: simulated gi fluid
[17] = Stability of the compound in 6 N HCl assessed as formation of shogaols; type: physicochemical; conditions: buffer
Mus musculus [18] = assay: Hypoglycemic activity in HFD-induced obese Jcl:MCH mouse model assessed as decrease in fasting blood glucose levels administered as supplement for 86 days measured after 92 to 94 days by OGTT relative to HFD-fed control; type: functional, organism-based
3T3-L1 [19] = assay: Increase in adiponectin mRNA levels in TNFalpha-induced mouse 3T3L1 cells pretreated at 10 uM before TNF-alpha challenge relative to control; type: functional, cell-based

Row | Stability [16] | Stability [17] | Compound | Activity (Mus musculus [1]) [g] | Activity (Mus musculus [2]) [g] | Activity (Mus musculus [3]) [%] | Activity (Mus musculus [4]) [%] | Activity (Mus musculus [5]) [g] | Activity (Mus musculus [6]) | Activity (Mus musculus [7]) | Activity (Mus musculus [8]) | Activity (Mus musculus [9]) | Activity (Mus musculus [10]) | Activity (Mus musculus [11]) | Activity (Mus musculus [12]) | Activity (Mus musculus [13]) | Activity (3T3-L1 [14]) | Activity (3T3-L1 [15]) | Activity (Mus musculus [18]) | Activity (3T3-L1 [19])
1 | Stable | Stable | CCCCCC(O)CC(=O)NCc1ccc(O)c(OC)c1 (configuration not stated) | 41.6 | 41.6 | 6.7 | 10.9 | 1.84 | Active | Active | Active | Active | Active | Active | Active | Active | Active | Active | Active | –
2 | – | – | CCCCCC(O)CC(=O)CCc1ccc(O)c(OC)c1 (configuration not stated) | – | 47.1 | – | 6.7 | 3.5 | Active | Active | Active | Active | Active | Active | Active | Active | – | Active | Active | –
3 | – | – | CN(CCOc1ccc(CC2SC(=O)NC2=O)cc1)c1ccccn1 (configuration not stated) | – | – | – | – | – | – | – | – | – | – | – | – | – | – | – | – | Active
